Experimental data taken from ChEMBL document CHEMBL1201862, “PubChem BioAssay data set” (2004).
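Where inhibition never reached the appropriate level, the endpoint shown equals the highest concentration tested. Otherwise, values were interpolated linearly from a five-concentration, 48-hour dose response in 96-well plates. At the GI50, growth is halved.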 Calls of active or inactive are those of the source. Rule as the data show it: active = GI50 up to about 1.1 µM and inactive = higher.

Key:
Test in all cases: NCI tumour cell line growth inhibition, 48 h
[1] = test system: SW-620
[2] = test system: MOLT-4
[3] = test system: Malme-3M
[4] = test system: OVCAR-3
[5] = test system: BT-549
[6] = test system: NCI-H460
[7] = test system: A498
[8] = test system: RPMI-8226
[9] = test system: NCI-H23
[10] = test system: DU-145
[11] = test system: HCT-116
[12] = test system: A549
[13] = test system: HCT-15
[14] = test system: NCI/ADR-RES
[15] = test system: U-251
[16] = test system: MCF7
[17] = test system: UACC-257
[18] = test system: NCI-H226
[19] = test system: IGROV-1
[20] = test system: OVCAR-8
[21] = test system: SF-268
[22] = test system: SNB-19
[23] = test system: HL-60
[24] = test system: SNB-75
[25] = test system: PC-3
[26] = test system: 786-0
[27] = test system: CCRF-CEM
[28] = test system: HT-29
[29] = test system: M14
[30] = test system: COLO 205
[31] = test system: HOP-62
[32] = test system: SK-MEL-5
[33] = test system: OVCAR-4
[34] = test system: ACHN
[35] = test system: SK-OV-3
[36] = test system: RXF 393
[37] = test system: MDA-N
[38] = test system: SK-MEL-28
[39] = test system: UO-31
[40] = test system: UACC-62
[41] = test system: Hs-578T
[42] = test system: HOP-92
[43] = test system: HCC 2998
[44] = test system: EKVX
[45] = test system: SN12C
[46] = test system: T47D
[47] = test system: K562
[48] = test system: SF-295
[49] = test system: LOX IMVI
[50] = test system: SR
[51] = test system: KM12
[52] = test system: MDA-MB-435
[53] = test system: CAKI-1
[54] = test system: SF-539
[55] = test system: MDA-MB-231
[56] = test system: NCI-H522
[57] = test system: TK-10

With `O=[N+]([O-])C(=C(N1CCCCC1)N1CCCCC1)/C(Cl)=C(\Cl)Br` the GI50 [1] was 15.6 µM (inactive), the GI50 [2] was 18.7 µM (inactive) and the GI50 [3] was 28.2 µM (inactive). For the same compound, the GI50 [4] was 29.3 µM (inactive), the GI50 [5] was 33.8 µM (inactive) and the GI50 [6] was 21 µM (inactive). The GI50 [7] was 21.5 µM (inactive), the GI50 [8] was 17.1 µM (inactive) and the GI50 [9] was 18.7 µM (inactive). The GI50 [10] was 30.8 µM (inactive), the GI50 [11] was 14.2 µM (inactive) and the GI50 [12] was 32.7 µM (inactive). For the same compound, the GI50 [13] was 16.4 µM, the GI50 [14] was 27.2 µM (inactive) and the GI50 [15] was 18.7 µM (inactive). The GI50 [16] was 21.9 µM (inactive), the GI50 [17] was 23.8 µM (inactive) and the GI50 [18] was 20.8 µM (inactive). The GI50 [19] was 25.8 µM (inactive), the GI50 [20] was 16.4 µM (inactive) and the GI50 [21] was 29.6 µM (inactive). The GI50 [22] was 26.4 µM (inactive), the GI50 [23] was 15.2 µM (inactive) and the GI50 [24] was 16.6 µM (inactive). The GI50 [25] was 22.9 µM (inactive), the GI50 [26] was 23.9 µM (inactive) and the GI50 [27] was 11.1 µM (inactive). For the same compound, the GI50 [28] was 29.7 µM (inactive), the GI50 [29] was 20.6 µM (inactive) and the GI50 [30] was 20.3 µM (inactive). The GI50 [31] was 44.7 µM (inactive), the GI50 [32] was 21 µM (inactive) and the GI50 [33] was 24 µM (inactive). The GI50 [34] was 24.9 µM (inactive), the GI50 [35] was 48.1 µM (inactive) and the GI50 [36] was 20.5 µM (inactive). The GI50 [37] was 29.2 µM (inactive), the GI50 [38] was 19.5 µM (inactive) and the GI50 [39] was 34.5 µM (inactive). The GI50 [40] was 10.7 µM (inactive), the GI50 [41] was 871 nM (active) and the GI50 [42] was 19.4 µM (inactive). For the same compound, the GI50 [43] was 17.5 µM (inactive), the GI50 [44] was 16.4 µM (inactive) and the GI50 [45] was 29.7 µM (inactive). For the same compound, the GI50 [46] was 25.2 µM (inactive), the GI50 [47] was 18.3 µM (inactive) and the GI50 [48] was 54.5 µM (inactive). The GI50 [49] was 16.1 µM (inactive), the GI50 [50] was 5.93 µM (inactive) and the GI50 [51] was 23.1 µM (inactive). For the same compound, the GI50 [52] was 20.5 µM (inactive), the GI50 [53] was 13.3 µM (inactive) and the GI50 [54] was 24.4 µM (inactive). The GI50 [55] was 27.2 µM (inactive), the GI50 [56] was 18.1 µM (inactive) and the GI50 [57] was 25.5 µM (inactive).
